For 11 compounds, IC50 results are on record in patent publication US12157746B2, “Tetrahydro-1H-pyrazino[2,1-a]isoindolylquinoline compounds for the treatment of autoimmune disease” (F. HOFFMANN-LA ROCHE AG, priority 2018, dated 2024).

Molecules are shown by their SMILES.

The experiment deals with T1, human TLR7 (Homo sapiens, UniProt Q9NYK1).
T1 sequence (Q9NYK1 27-1049): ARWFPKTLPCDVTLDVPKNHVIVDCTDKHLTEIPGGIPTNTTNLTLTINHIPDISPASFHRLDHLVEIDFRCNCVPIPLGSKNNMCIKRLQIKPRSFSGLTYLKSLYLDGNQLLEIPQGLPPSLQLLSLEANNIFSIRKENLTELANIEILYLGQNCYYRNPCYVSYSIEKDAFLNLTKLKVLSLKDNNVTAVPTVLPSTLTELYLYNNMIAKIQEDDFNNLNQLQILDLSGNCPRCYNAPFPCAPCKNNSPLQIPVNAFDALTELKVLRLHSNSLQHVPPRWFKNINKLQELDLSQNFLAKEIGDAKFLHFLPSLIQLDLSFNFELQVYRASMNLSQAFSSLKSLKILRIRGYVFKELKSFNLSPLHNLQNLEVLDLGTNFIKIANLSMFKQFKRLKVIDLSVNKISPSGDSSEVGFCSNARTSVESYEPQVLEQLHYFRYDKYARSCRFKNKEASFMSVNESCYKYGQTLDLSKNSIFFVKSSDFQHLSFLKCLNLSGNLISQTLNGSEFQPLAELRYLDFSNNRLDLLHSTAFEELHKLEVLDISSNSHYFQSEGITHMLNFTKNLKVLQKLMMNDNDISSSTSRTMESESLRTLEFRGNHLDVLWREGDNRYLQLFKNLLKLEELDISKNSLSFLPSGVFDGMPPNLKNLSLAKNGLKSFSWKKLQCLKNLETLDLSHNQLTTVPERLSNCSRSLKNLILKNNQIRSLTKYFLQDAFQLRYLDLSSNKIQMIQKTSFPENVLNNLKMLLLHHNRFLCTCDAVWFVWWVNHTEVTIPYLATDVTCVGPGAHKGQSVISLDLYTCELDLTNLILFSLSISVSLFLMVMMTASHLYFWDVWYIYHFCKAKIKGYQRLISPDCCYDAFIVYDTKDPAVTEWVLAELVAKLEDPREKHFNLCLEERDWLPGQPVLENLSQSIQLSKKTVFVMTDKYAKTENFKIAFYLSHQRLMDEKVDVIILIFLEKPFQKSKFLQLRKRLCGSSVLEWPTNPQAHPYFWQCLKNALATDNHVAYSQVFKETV
The experiment in a line: HEK293-Blue-hTLR-7 cells assay. The note with it: HEK293-Blue-hTLR7 cells, R848 stimulation, 20 hrs, SEAP reporter; read-out: HEK/hTLR7 IC50. It is filed as cell-based. In short, it runs like this:
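HEK293-Blue-hTLR7 cells (NF-κB/AP-1-driven SEAP reporter) incubated with serially diluted compound (1% DMSO final) and R848 agonist for 20 h at 37 °C. Supernatant SEAP measured with QUANTI-Blue (2 h, 37 °C) by absorbance at 620-655 nm; antagonism seen as reduced reporter.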
Turning to `C[C@@H]1CN(c2ccc(C#N)c3ncccc23)C[C@@H]2c3ccc(N4C[C@H]5CNCCN5C4=O)cc3CN12` [Example 72, 5-[(4R,10bS)-8-[(8aR)-3-oxo-1,5,6,7,8,8a-hexahydroimidazo[1,5-a]pyrazin-2-yl]-4-methyl-3,4,6,10b-tetrahydro-1H-pyrazino[2,1-a]isoindol-2-yl]quinoline-8-carbonitrile], the IC50 is < 3.2 nM.

Take `Cc1ccc(N2C[C@@H](C)N3Cc4cc(N[C@H]5CNC[C@H]5F)ccc4[C@H]3C2)c2cccnc12` [Example 75, (4R,10bS)—N-[(3S,4R)-4-fluoropyrrolidin-3-yl]-4-methyl-2-(8-methyl-5-quinolyl)-3,4,6,10b-tetrahydro-1H-pyrazino[2,1-a]isoindol-8-amine]: the IC50 turned out to be 47.8 nM.

In the case of `C[C@@H]1CN(c2ccc(C#N)c3ncccc23)C[C@@H]2c3cc(F)c(N4CC5CNCC(C4)O5)cc3CN12` [Example 85, 5-[(4R,10bS)-9-fluoro-4-methyl-8-(9-oxa-3,7-diazabicyclo[3.3.1]nonan-3-yl)-3,4,6,10b-tetrahydro-1H-pyrazino[2,1-a]isoindol-2-yl]quinoline-8-carbonitrile], the IC50 was 6.9 nM.

Regarding `C[C@@H]1CN(c2ccc(C#N)c3ncsc23)C[C@@H]2c3ccc(N[C@H]4CNC[C@H]4F)cc3CN12` [Example 78, 7-[(4R,10bS)-8-[[(3S,4R)-4-fluoropyrrolidin-3-yl]amino]-4-methyl-3,4,6,10b-tetrahydro-1H-pyrazino[2,1-a]isoindol-2-yl]-1,3-benzothiazole-4-carbonitrile], the IC50 was found to be 1.2 nM.

As for `C[C@H]1CN(c2ccc(C#N)c3ncccc23)C[C@H]2c3ccc(N4CCNCC4)cc3CN12` [Example 2, 5-[(4S,10bR)-4-methyl-8-piperazin-1-yl-3,4,6,10b-tetrahydro-1H-pyrazino[2,1-a]isoindol-2-yl]quinoline-8-carbonitrile], the IC50 was 71.5 nM.

In the case of `C[C@@H]1CN(c2ccc(C#N)c3ncccc23)C[C@@H]2c3cccc(N[C@H]4CNC[C@H]4F)c3CN12` [Example 81, 5-[(4R,10bS)-7-[[(3S,4R)-4-fluoropyrrolidin-3-yl]amino]-4-methyl-3,4,6,10b-tetrahydro-1H-pyrazino[2,1-a]isoindol-2-yl]quinoline-8-carbonitrile], the IC50 came out at 7.4 nM.

As to `C[C@@H]1CN(c2ccc(C#N)c3ncccc23)C[C@@H]2c3ccc(N4C[C@@H]5CNCCN5C4=O)cc3CN12` [Example 71, 5-[(4R,10bS)-8-[(8aS)-3-oxo-1,5,6,7,8,8a-hexahydroimidazo[1,5-a]pyrazin-2-yl]-4-methyl-3,4,6,10b-tetrahydro-1H-pyrazino[2,1-a]isoindol-2-yl]quinoline-8-carbonitrile], the IC50 was < 3.2 nM.

For `C[C@@H]1CN(c2ccc(C#N)c3ncccc23)C[C@@H]2c3ccc(OC[C@@H]4C[C@H](F)CN4)cc3CN12` [Example 74, 5-[(4R,10bS)-8-[[(2S,4S)-4-fluoropyrrolidin-2-yl]methoxy]-4-methyl-3,4,6,10b-tetrahydro-1H-pyrazino[2,1-a]isoindol-2-yl]quinoline-8-carbonitrile], the IC50 was 3.9 nM.

Regarding `C[C@@H]1CN(c2ccc(C#N)c3ncccc23)C[C@@H]2c3cccc(NCCN4CC[C@H](O)C4)c3CN12` [Example 80, 5-[(4R,10bS)-7-[2-[(3S)-3-hydroxypyrrolidin-1-yl]ethylamino]-4-methyl-3,4,6,10b-tetrahydro-1H-pyrazino[2,1-a]isoindol-2-yl]quinoline-8-carbonitrile], the IC50 worked out at 17.9 nM.

Regarding `CO[C@H]1CNC[C@@H]1Nc1ccc2c(c1)CN1[C@H](C)CN(c3ccc(C#N)c4ncccc34)C[C@H]21` [Example 62, 5-[(4R,10bS)-8-[[(3S,4S)-4-methoxypyrrolidin-3-yl]amino]-4-methyl-3,4,6,10b-tetrahydro-1H-pyrazino[2,1-a]isoindol-2-yl]quinoline-8-carbonitrile], the IC50 came out at 5.9 nM.

As for `C[C@@H]1CN(c2ccc(C#N)c3ncccc23)C[C@@H]2c3ccc(NCC4COCCN4)cc3CN12` (stereo partly drawn) [Example 57, 5-[(4R,10bS)-4-methyl-8-(morpholin-3-ylmethylamino)-3,4,6,10b-tetrahydro-1H-pyrazino[2,1-a]isoindol-2-yl]quinoline-8-carbonitrile], the IC50 is 11.1 nM.
